Source: publication PMC2364081, “Antagonists of retinoic acid receptors (RARs) are potent growth inhibitors of prostate carcinoma cells” (British Journal of Cancer, 2001)

Key:
RARγ [1] = biological target: T1, RARγ (Homo sapiens, UniProt P13631); assay: Binding to baculovirus-expressed RARγ; design: made in house; settings: baculovirus-expressed receptor
T1 sequence (P13631 1-454): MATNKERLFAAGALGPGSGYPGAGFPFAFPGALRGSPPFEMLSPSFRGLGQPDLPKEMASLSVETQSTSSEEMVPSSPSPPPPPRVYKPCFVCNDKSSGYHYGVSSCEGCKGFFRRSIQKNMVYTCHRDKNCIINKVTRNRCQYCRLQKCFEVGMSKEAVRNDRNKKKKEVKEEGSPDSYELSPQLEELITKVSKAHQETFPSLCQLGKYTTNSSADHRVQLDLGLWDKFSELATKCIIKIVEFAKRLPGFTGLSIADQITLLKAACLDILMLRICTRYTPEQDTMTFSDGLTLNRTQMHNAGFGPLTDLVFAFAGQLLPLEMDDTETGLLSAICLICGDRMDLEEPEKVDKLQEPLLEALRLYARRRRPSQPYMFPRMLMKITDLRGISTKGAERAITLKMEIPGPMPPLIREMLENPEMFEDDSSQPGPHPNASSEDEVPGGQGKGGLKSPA
Description: (§1) Prostate cancer is one of the most common cancers in European and American males and has a high mortality rate (Landis et al, 1998; Rosenthal, 1998). Early disease is managed conservatively in Europe although in selected patients surgery is curative. In advanced disease, androgen ablation can produce symptomatic improvement, but the tumour often re-emerges in an androgen- independent and incurable form. One proposed treatment for androgen-independent prostate carcinoma is differentiation ther- apy, in which agents such as all-trans-retinoic acid (ATRA), 9-cis- retinoic acid and 1, 25-dihydroxyvitamin D3 (D3 ) are used to induce growth arrest, differentiation and sometimes apoptosis of the tumour cells (Liang et al, 1999; de Vos et al, 1997; Skowronski et al, 1994; Hedlund et al, 1997). ATRA and synthetic analogues exert their biological effects by binding to two families of retinoid receptors, […]. These are ligand-dependent transcription factors of the steroid/thyroid hormone nuclear receptor superfamily (Chambon 1994; Boehm et al, 1995). Activated RARs bind to retinoic acid-responsive elements (RAREs) in the promoters of genes and thus regulate gene expression. They also antagonize the activity of the tran- scription factor AP1 and thereby down-regulate the expression of some AP1-activated genes (Nagpal et al, 1995). One approach to unravelling the contributions of RAR sub-types to these actions has been the development of synthetic retinoids with selective activities at individual RARs and RXRs. For example, the diaryl- acetylenic retinoids allow separation of transactivation and AP1 antagonism functions at RAR (Nagpal et al, 1995). Recently, compounds that are selective for particular RAR sub-types have been synthesized: these include both agonists and antagonists (Chandraratna, 1995; Teng et al, 1999; Johnson et al, 1999). The functional selectivity of these compounds may open the way to achieving differentiation or apoptosis of tumour cells with minimal systemic side effects (Chandraratna, 1995). Cell lines that are commonly used in the evaluation of investiga- tional agents for prostate cancer include LNCaP, DU-145 and PC- 3. […] These lines are relatively insensitive to growth inhibition and induction of apoptosis by ATRA and by synthetic agonists. […] Fenretinide (4HPR) induces apoptosis of LNCaP and of PC-3 cells at 1-5 M and 25 µM, respectively (Pienta et al, 1993; Heish and Wu, 1997). Pfahl and colleagues examined the growth inhibitory effects of a panel of receptor-selective retinoids against DU145 and PC-3 cells and achieved complete growth inhibition and induction of apoptosis between 1 M and 10 M (Lu et al, 1999). […] Antagonists of retinoic acid receptors (RARs) are potent growth inhibitors of prostate carcinoma cells LA Hammond1 , CH Van Krinks2 , J Durham2 , SE Tomkins2 , RD Burnett3 , EL Jones1 , RAS Chandraratna3 and G Brown2 Divisions of 1 Cancer Studies and of 2 Immunity and Infection, University of Birmingham Medical School, Edgbaston, Birmingham B15 2TT, UK and 3 Retinoid Research, Allergan Inc., Irvine, California, USA Summary Novel synthetic antagonists of retinoic acid receptors (RARs) have been developed. To avoid interference by serum retinoids when testing these compounds, we established serum-free grown sub-lines (>3 years) of the prostate carcinoma lines LNCaP, PC3 and DU145. […] A component(s) of serum and of LNCaP-conditioned medium diminishes the activity of antagonists: this factor is not the most likely candidates IGF-1 and EGF. In vitro studies of RAR antagonists together with data from RAR-null mice lead to the hypothesis that RAR-regulated gene transcription is necessary for the survival and maintenance of prostate epithelium. […]

RARγ [2] = biological target: T1, RARγ; assay: Transactivation by RARγ in doubly transfected CV-1 cells (MTV-TREp-LUC reporter); format: cell-based; design: expressed in transfected cells; host or cells: CV-1 cells; key to EC50 transactivation RARγ: NA: inactive; WA: weak partial agonist
Description: (§2) Prostate cancer is one of the most common cancers in European and American males and has a high mortality rate (Landis et al, 1998; Rosenthal, 1998). Early disease is managed conservatively in Europe although in selected patients surgery is curative. In advanced disease, androgen ablation can produce symptomatic improvement, but the tumour often re-emerges in an androgen- independent and incurable form. One proposed treatment for androgen-independent prostate carcinoma is differentiation ther- apy, in which agents such as all-trans-retinoic acid (ATRA), 9-cis- retinoic acid and 1, 25-dihydroxyvitamin D3 (D3 ) are used to induce growth arrest, differentiation and sometimes apoptosis of the tumour cells (Liang et al, 1999; de Vos et al, 1997; Skowronski et al, 1994; Hedlund et al, 1997). ATRA and synthetic analogues exert their biological effects by binding to two families of retinoid receptors, […]. These are ligand-dependent transcription factors of the steroid/thyroid hormone nuclear receptor superfamily (Chambon 1994; Boehm et al, 1995). Activated RARs bind to retinoic acid-responsive elements (RAREs) in the promoters of genes and thus regulate gene expression. They also antagonize the activity of the tran- scription factor AP1 and thereby down-regulate the expression of some AP1-activated genes (Nagpal et al, 1995). […]

RARβ [3] = biological target: T2, RARβ (Homo sapiens, UniProt P10826); assay: Binding to baculovirus-expressed RARβ; design: made in house; settings: baculovirus-expressed receptor
T2 sequence (P10826 1-455): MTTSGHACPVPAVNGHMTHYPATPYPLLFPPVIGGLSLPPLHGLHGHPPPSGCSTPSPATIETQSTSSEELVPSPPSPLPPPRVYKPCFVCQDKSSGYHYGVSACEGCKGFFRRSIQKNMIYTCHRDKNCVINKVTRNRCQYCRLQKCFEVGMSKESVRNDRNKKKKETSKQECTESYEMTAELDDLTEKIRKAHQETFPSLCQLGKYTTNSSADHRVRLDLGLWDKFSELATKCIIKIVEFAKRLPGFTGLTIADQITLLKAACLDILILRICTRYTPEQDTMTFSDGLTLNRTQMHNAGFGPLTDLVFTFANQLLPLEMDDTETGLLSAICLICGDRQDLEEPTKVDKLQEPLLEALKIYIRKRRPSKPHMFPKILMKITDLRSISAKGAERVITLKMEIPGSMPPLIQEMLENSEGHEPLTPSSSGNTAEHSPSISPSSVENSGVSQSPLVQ
Description: as §1

RARβ [4] = biological target: T2, RARβ; assay: Transactivation by RARβ in doubly transfected CV-1 cells (MTV-TREp-LUC reporter); format: cell-based; design: expressed in transfected cells; host or cells: CV-1 cells; key to EC50 transactivation RARβ: NA: inactive; WA: weak partial agonist
Description: (§3) Prostate cancer is one of the most common cancers in European and American males and has a high mortality rate (Landis et al, 1998; Rosenthal, 1998). Early disease is managed conservatively in Europe although in selected patients surgery is curative. In advanced disease, androgen ablation can produce symptomatic improvement, but the tumour often re-emerges in an androgen- independent and incurable form. One proposed treatment for androgen-independent prostate carcinoma is differentiation ther- apy, in which agents such as all-trans-retinoic acid (ATRA), 9-cis- retinoic acid and 1, 25-dihydroxyvitamin D3 (D3 ) are used to induce growth arrest, differentiation and sometimes apoptosis of the tumour cells (Liang et al, 1999; de Vos et al, 1997; Skowronski et al, 1994; Hedlund et al, 1997). ATRA and synthetic analogues exert their biological effects by binding to two families of retinoid receptors, the RARs (RAR, RAR and RAR) and the RXRs (RXR, RXR and RXR). These are ligand-dependent transcription factors of the steroid/thyroid hormone nuclear receptor superfamily (Chambon 1994; Boehm et al, 1995). Activated RARs bind to retinoic acid-responsive elements (RAREs) in the promoters of genes and thus regulate gene expression. They also antagonize the activity of the tran- scription factor AP1 and thereby down-regulate the expression of some AP1-activated genes (Nagpal et al, 1995). One approach to unravelling the contributions of RAR sub-types to these actions has been the development of synthetic retinoids with selective activities at individual RARs and RXRs. For example, the diaryl- acetylenic retinoids allow separation of transactivation and AP1 antagonism functions at RAR (Nagpal et al, 1995). Recently, compounds that are selective for particular RAR sub-types have been synthesized: these include both agonists and antagonists (Chandraratna, 1995; Teng et al, 1999; Johnson et al, 1999). The functional selectivity of these compounds may open the way to achieving differentiation or apoptosis of tumour cells with minimal systemic side effects (Chandraratna, 1995). […]

RARα [5] = biological target: T3, RARα (Homo sapiens, UniProt P10276); assay: Binding to baculovirus-expressed RARα; design: made in house; settings: baculovirus-expressed receptor
T3 sequence (P10276 1-462): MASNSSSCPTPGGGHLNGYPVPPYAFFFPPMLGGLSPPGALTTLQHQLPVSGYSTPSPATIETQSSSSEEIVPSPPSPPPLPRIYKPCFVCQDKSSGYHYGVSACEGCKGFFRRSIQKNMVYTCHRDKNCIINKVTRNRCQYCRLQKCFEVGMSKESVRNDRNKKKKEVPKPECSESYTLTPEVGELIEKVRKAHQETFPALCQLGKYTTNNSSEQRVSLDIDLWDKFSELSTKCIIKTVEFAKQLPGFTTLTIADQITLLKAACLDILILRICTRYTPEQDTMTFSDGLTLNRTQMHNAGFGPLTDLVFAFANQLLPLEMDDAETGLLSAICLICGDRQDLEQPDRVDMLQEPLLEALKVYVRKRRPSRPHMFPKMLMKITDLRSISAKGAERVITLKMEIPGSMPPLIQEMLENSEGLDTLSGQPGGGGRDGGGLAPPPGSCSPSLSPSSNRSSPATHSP
Description: as §1

RARα [6] = biological target: T3, RARα; assay: Transactivation by RARα in doubly transfected CV-1 cells (MTV-TREp-LUC reporter); format: cell-based; design: expressed in transfected cells; host or cells: CV-1 cells
Description: as §3

DU145 ITS+ cells = assay: Plate colony formation assay, serum-free (ITS+)-grown DU145; format: cell-based, human; settings: 14 days
Description: as §3

HL60 cells [7] = assay: ATRA-induced differentiation of HL60 cells to neutrophils (nitroblue tetrazolium reduction); format: cell-based, human; settings: antagonist at 100 nM added with 100 nM ATRA
Description: as §2

PC3 ITS+ cells = assay: Plate colony formation assay, serum-free (ITS+)-grown PC3; format: cell-based, human; settings: 14 days
Description: as §3

[8] = test system: LNCaP, PC3 and DU145 cells; assay: Plate colony formation assay, stated over the three serum-free grown lines; format: cell-based, human; settings: for IC50: stated over all three serum-free grown lines, read-out: concentration inhibiting colony formation by 50% (IC50)
Description: as §1

LNCaP ITS+ cells = assay: Plate colony formation (clonal proliferation) assay, serum-free (ITS+)-grown LNCaP; format: cell-based, human; settings: LNCaP, serum-free (ITS+), 14 days
Description: as §1

HL60 cells [9] = assay: Clonal growth of single serum-free grown HL60 cells in microtitre wells; format: cell-based, human; settings: 100 nM
Description: as §1

[10] = test system: FBS-grown LNCaP, DU145 and PC3 cells; assay: Plate colony formation assay, stated over the three FBS-grown lines; format: cell-based, human; settings: 100 nM
Description: as §2

SMILES	Kd (RARγ [1])	EC50 (RARγ [2])	Kd (RARβ [3])	EC50 (RARβ [4])	Kd (RARα [5])	EC50 (RARα [6])	EC50 transactivation RARβ (RARβ [4])	IC50 (DU145 ITS+ cells)	percentage of mature cells (HL60 cells [7])	IC50 (PC3 ITS+ cells)	inhibition of colony formation ([8]; 100 nM, three lines in ITS+ medium)	IC50 [8]	IC50 (LNCaP ITS+ cells)	viability of the single cells (HL60 cells [9])	effect on clonal growth of HL60 cells (HL60 cells [9]; 4 days)	number of viable cells at day 4 (HL60 cells [9]; control 18)	cloning efficiency (HL60 cells [9]; same as untreated)	inhibition of colony formation [10]	EC50 transactivation RARγ (RARγ [2])
CC1(C)CCSc2ccc(C#Cc3ccc(C(=O)O)cn3)cc21 [AGN190299]	57 nM	42 nM	41 nM	18 nM	616 nM	> 1000 nM	–	–	–	–	–	–	–	–	–	–	–	–	–
CC1(C)CCC(C)(C)c2cc(C(=O)Nc3cc(F)c(C(=O)O)c(F)c3)c(O)cc21 [AGN194078]	> 5000 nM	–	> 5000 nM	–	4 nM	140 nM	WA	–	–	–	–	–	–	–	–	–	–	–	–
Cc1ccc(C2=CC(C)(C)Oc3c(Br)cc(C(=O)Nc4ccc(C(=O)O)c(F)c4)cc32)cc1 [AGN194301]	7250 nM	–	320 nM	–	3 nM	–	–	201 nM	1%	235 nM	42-74%	~200 nM	203 nM	> 95%	did not adversely affect	22	90-93%	0-19%	–
Cc1ccc(C2=CCC(C)(C)c3ccc(N=Nc4ccc(C(=O)O)cc4F)cc32)cc1 [AGN194431]	70 nM	–	6 nM	–	300 nM	–	–	88 nM	–	104 nM	–	~100 nM	99 nM	–	–	–	–	–	–
CC(C)N1CCC(C)(C)c2cc(C(=O)Nc3ccc(C(=O)O)c(F)c3)c(O)cc21 [AGN195153]	> 5000 nM	–	> 5000 nM	–	40 nM	130 nM	WA	–	–	–	–	–	–	–	–	–	–	–	WA
